In patent US8007782B2, “Combination bacteriolytic therapy for the treatment of tumors” (priority 2003, dated 2011):

Assays:
[1] = system: HCT116 human colorectal cancer cells; experiment: Tumorigenicity assay, HCT116 xenografts in nude mice; type: in vivo; conditions: for Effect with C. novyi-NT / Effect alone: nude mice; for Effect alone: agent alone
From the text: (§1) All animal protocols were designed in accordance with the Guide for the Care and Use of Laboratory Animals (NIH Publication 86-23) and were approved by the Johns Hopkins University Institutional Animal Care and Use Committee. Six to eight week old mice were implanted subcutaneously on one flank with 3 to 6 million cancer cells. Establishment of tumors of 150 to 500 mm3 took 8 to 21 days, depending on the cell type. C. novyi-NT spores (300×106) and anti-microtubule agents were generally administered by a single intravenous injection through the tail vein in a total volume of 300 to 500 ul phosphate-buffered saline (PBS). Quantitative assessment of tumor growth was performed by measuring subcutaneous tumor grafts (major and minor axis) using electronic calipers. Tumor volume was calculated using the equation: length×width2×0.5. Progression free survival was defined as the length of time following treatment before any increase in tumor volume was observed. Mice were considered “cured” if no tumor was evident three months after treatment. Animals were weighed at least twice a week and carefully observed for signs of toxicity every day for the first week following treatment and then twice a week thereafter. At least five mice were used for each treatment arm described in the Experimental Results.
The timing, route, and dose of agents are critical for the success of any experimental therapy. When two agents are combined, the number of variables that must be tested increases exponentially. To simplify interpretation of the comparisons between various anti-microtubule agents, pilot studies with representative drugs were performed.
Eighteen agents known to interact with microtubules were each tested in this manner in nude mice harboring xenografts of HCT116 human colorectal cancer cells. At least five mice harboring tumors of 150 to 500 mm3 in size were used for each experimental arm. Two classes of responses were noted. One type of response was characterized by a rapid hemorrhagic necrosis, observed only with agents that inhibited microtubule […] (FIG. 1A, B). The other type of response was characterized by a slow regression, observed with agents that stabilized microtubules (FIG. 2A, B).

[2] = system: HuCC-T1 cholangiocarcinoma; experiment: Tumorigenicity assay, HuCC-T1 xenografts; type: in vivo, nude mice
From the text: as §1
We next evaluated the responses to COBALT/HTI-286 in other murine tumor models. […]

[3] = Mortality following COBALT; type: in vivo, nude mice; conditions: deaths within one week, pooled xenograft models
From the text: as §1
(§2) This toxicity was observed only when the combination of C. novyi-NT spores and the drugs was administered and not with either the bacteria or the drugs alone. […] Though major tumor regressions were common, few mice died as a result of therapy (Table 2) No deaths occurred after treatment with the microtubule stabilizers plus C. novyi-NT, while 4% to 8% of mice treated with microtubule destabilizers plus C. novyi-NT died. The only other toxicity observed was transient weight loss (Table 3). Mice treated with the drugs alone lost ˜5 to 10% of their body weight within 7 days, while weight loss after treatment with C. novyi-NT plus these drugs varied from 8% to 18%. All weights recovered to pre-treatment levels within two weeks.

Weight loss after COBALT = type: in vivo, nude mice; conditions: drug dose 60.0 mg/kg; maximum average weight loss relative to weight one day prior to treatment; HCT116 xenografts
From the text: as §1, §2

In the case of `CCC(=O)O[C@H]1C[C@H]2OC[C@@]2(OC(C)=O)[C@H]2[C@H](OC(=O)c3ccccc3)[C@]3(O)C[C@H](OC(=O)[C@H](O)[C@@H](NC(=O)OC(C)(C)C)c4ccco4)C(C)=C([C@@H](O)C(=O)[C@]12C)C3(C)C` [MAC-321, 5β,20-epoxy-1,2α-,4-,7β-,10β-,13α-hexahydroxytax-11-en-9-one 4 acetate 2 benzoate 7 propionate 13-ester with (2R,3S)—N-tertbutoxycarbonyl-3-(2-furyl)isoserine], the “Effect with C. novyi-NT” value ([1]; 10 mg/kg × 1 (iv) with 3×108 C. novyi-NT spores iv) is reported as “++ (10% to 50% shrinkage in tumor volume relative to pre-treatment size)”, the “Effect with C. novyi-NT” value ([1]; 45 mg/kg × 1 (iv) with 3×108 C. novyi-NT spores iv) is reported as “++++ (>20% cures)” and the “Effect with C. novyi-NT” value ([1]; 50 mg/kg × 1 (iv) with 3×108 C. novyi-NT spores iv) is reported as “++++ (>20% cures)”. For the same compound, the “Effect with C. novyi-NT” value ([1]; 60 mg/kg × 1 (iv) with 3×108 C. novyi-NT spores iv) was “++++ (>20% cures)”, the “Effect with C. novyi-NT” value ([1]; 70 mg/kg × 1 (iv) with 3×108 C. novyi-NT spores iv) was “++++ (>20% cures)” and the Effect alone ([1]; 10 mg/kg × 1 (iv)) was “+”. For the same compound, the Effect alone ([1]; 45 mg/kg × 1 (iv)) was “+++ (>50% shrinkage in tumor volume relative to pre-treatment size)”, the Effect alone ([1]; 50 mg/kg × 1 (iv)) was “+++ (>50% shrinkage in tumor volume relative to pre-treatment size)” and the Effect alone ([1]; 60 mg/kg × 1 (iv)) was “+++ (>50% shrinkage in tumor volume relative to pre-treatment size)”. The Effect alone ([1]; 70 mg/kg × 1 (iv)) was “+++ (>50% shrinkage in tumor volume relative to pre-treatment size)”, the “mice cured (in words)” value ([1]; cured = no tumor evident three months after treatment) was “no mice” and the “mice cured (number of mice)” value [2] was “one of eight”. For the same compound, the “# dead (treatment-related deaths)” value ([3]; drug dose 45.0 mg/kg) was 0, the “# dead (treatment-related deaths)” value ([3]; drug dose 50.0 mg/kg) was 0 and the “# dead (treatment-related deaths)” value ([3]; drug dose 60.0 mg/kg) was 0. For the same compound, the “# dead (treatment-related deaths)” value ([3]; drug dose 70.0 mg/kg) was 0 and the “Weight Loss (%)” value (Weight loss after COBALT) was 5.5%.
